Data: patent US20240217968A1, “PHARMACEUTICAL COMPOUND” (DUKE STREET BIO LIMITED, priority 2021, published 2024)

Molecular target: T1, recombinant human Flag-tagged PARP7 (amino acids 456-657) (Homo sapiens, UniProt Q7Z3E1)
T1 construct: recombinant human Flag-tagged PARP7 (amino acids 456-657)
T1 sequence (Q7Z3E1 456-657): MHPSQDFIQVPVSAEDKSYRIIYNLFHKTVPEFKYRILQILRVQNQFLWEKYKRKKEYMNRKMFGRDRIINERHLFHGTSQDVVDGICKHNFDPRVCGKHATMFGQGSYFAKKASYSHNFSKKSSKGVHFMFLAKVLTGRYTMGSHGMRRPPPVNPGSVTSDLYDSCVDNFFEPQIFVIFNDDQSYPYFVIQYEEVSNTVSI
Assay: PARP7 biochemical DELFIA assay (auto-MARylation)
Conditions: DELFIA readout, IC50 class
Procedure, shortened: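 Readout is DELFIA time-resolved Eu fluorescence (Ex337 nm, Em620 nm) of biotin-ADP-ribose on immobilised Flag-tagged PARP7 456-657. Enzyme (12.5-37.5 nM as added) sat 30 min with compound before biotin-NAD+ (15 μM solution, pH 7.5 HEPES buffer) started 2-3 h room-temperature self-modification, stopped with excess NAD+.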

| SMILES | IC50 |
| --- | --- |
| CN(C(=O)COCCc1cccc2c(=O)[nH]ncc12)C1CN(c2ncc(C(F)(F)F)cn2)C1 [Compound 109] | 1000 to 10000 nM |
| O=C(NCCOCc1cccc2c(=O)[nH]ncc12)C1CCN(c2ncc(C(F)(F)F)cn2)CC1 [Compound 110] | 100 to 1000 nM |
| N#Cc1ccc(N2CCN(C(=O)CCOCCc3cc(C#N)cc4c(=O)[nH]ncc34)CC2)nc1 [Compound 111] | 100 to 1000 nM |
| N#Cc1cc(CCOCCC(=O)N2CCN(c3ncc(C(F)(F)F)cn3)CC2)c2cn[nH]c(=O)c2c1 [Compound 112] | 100 to 1000 nM |
| CS(=O)(=O)c1ccc(N2CCN(C(=O)CCOCCc3cccc4c(=O)[nH]ncc34)CC2)nc1 [Compound 113] | 100 to 1000 nM |
| O=C(CCOCCc1cccc2c(=O)[nH]ncc12)N1CCC(c2ncc(Cl)cn2)CC1 [Compound 115] | 100 to 1000 nM |
| N#Cc1ccc(OC2CCN(C(=O)CCOCCc3cccc4c(=O)[nH]ncc34)C2)nc1 (stereo not drawn) [Compound 116] | 1000 to 10000 nM |
| O=C1NCCc2c(NCCOCC(=O)N3CCN(c4ncc(C(F)(F)F)cn4)CC3)cccc21 [Compound 117] | 1000 to 10000 nM |
| O=C(CCOCCc1cccc2c(=O)[nH]ncc12)N1CCC(c2ccc(Cl)cn2)CC1 [Compound 118] | 100 to 1000 nM |
| CC(COCCC(=O)N1CCN(c2ncc(C(F)(F)F)cn2)CC1)c1cc(F)cc2c(=O)[nH]ncc12 (stereo not drawn) [Compound 119] | 1000 to 10000 nM |
| O=C1NC(=O)c2c(CCOCCC(=O)N3CCN(c4ncc(C(F)(F)F)cn4)CC3)cccc21 [Compound 121] | 100 to 1000 nM |
| CC1CCc2c(cn[nH]c2=O)N1CCOCCC(=O)N1CCN(c2ncc(C(F)(F)F)cn2)CC1 (stereo not drawn) [Compound 126] | 100 to 1000 nM |
| O=C1NCCn2c(CCOCCC(=O)N3CCN(c4ncc(C(F)(F)F)cn4)CC3)ccc21 [Compound 128] | 100 to 1000 nM |
| COCc1cc2c(=O)[nH]ncc2n1CCOCCC(=O)N1CCN(c2ncc(C(F)(F)F)cn2)CC1 [Compound 135] | 100 to 1000 nM |
| NCc1cc2c(=O)[nH]ncc2n1CCOCCC(=O)N1CCN(c2ncc(C(F)(F)F)cn2)CC1 [Compound 136] | 100 to 1000 nM |
| O=C1NCCCc2c(CCOCCC(=O)N3CCN(c4ncc(C(F)(F)F)cn4)CC3)cccc21 [Compound 145] | 1000 to 10000 nM |
| CC(COCCn1ncc2c(=O)[nH]ncc21)C(=O)N1CCN(c2ncc(C(F)(F)F)cn2)CC1 (stereo not drawn) [Compound 156] | 100 to 1000 nM |

| SMILES | IC50 |
| --- | --- |
| Nc1nc(N2CCN(C(=O)CCOCCc3cccc4c(=O)[nH]ncc34)CC2)ncc1C(F)(F)F [Compound 159] | 100 to 1000 nM |
| CC1CN(c2ncc(C(F)(F)F)cn2)CCN1C(=O)CCOCCn1nc(C(F)(F)F)c2c(=O)[nH]ncc21 (stereo not drawn) [Compound 161] | ≤ 100 nM |
| CC(COCCC(=O)N1CCN(c2ncc(C(F)(F)F)cn2)CC1)c1cc(Cl)cc2c(=O)[nH]ncc12 (stereo not drawn) [Compound 162] | 100 to 1000 nM |
| CC(COCCC(=O)N1CCN(c2ncc(C(F)(F)F)cn2)CC1)c1cc(Cl)cc2c(=O)[nH]ncc12 (stereo not drawn) [Compound 163] | ≤ 100 nM |
| CCc1cn(CCOCCC(=O)N2CCN(c3ncc(C(F)(F)F)cn3)CC2)c2cn[nH]c(=O)c12 [Compound 164] | ≤ 100 nM |
| O=C(OCCCCc1cccc2c(=O)[nH]ncc12)N1CCN(c2ncc(C(F)(F)F)cn2)CC1 [Compound 165] | ≤ 100 nM |
| CN(CCCC(=O)N1CCN(c2ncc(C(F)(F)F)cn2)CC1)Cc1cccc2c(=O)[nH]ncc12 [Compound 167] | 100 to 1000 nM |
| CC(COCCC(=O)N1CCN(c2ncc(C(F)(F)F)cn2)CC1)n1ncc2c(=O)[nH]ncc21 (stereo not drawn) [Compound 168] | ≤ 100 nM |
| CC(COCCC(=O)N1CCN(c2ncc(C(F)(F)F)cn2)CC1)n1ncc2c(=O)[nH]ncc21 (stereo not drawn) [Compound 169] | 100 to 1000 nM |
| Cc1nc2c(=O)[nH]ncc2n1CCOCCC(=O)N1CCN(c2ncc(C(F)(F)F)cn2)CC1 [Compound 170] | 100 to 1000 nM |
| O=C(CCOCCn1nc(C(F)(F)F)c2c(=O)[nH]ncc21)N1CCN(c2nc3cc(Cl)ccc3o2)CC1 [Compound 171] | ≤ 100 nM |
| O=C(CCOCCc1cccc2c(=O)[nH]ncc12)N1CCN(c2nc3cc(Cl)ccc3o2)CC1 [Compound 172] | ≤ 100 nM |
| CC1(C)CN(C(=O)CCOCCn2nc(C(F)(F)F)c3c(=O)[nH]ncc32)CCN1c1ccc(C(F)(F)F)cn1 [Compound 173] | ≤ 100 nM |
| CC(COCCC(=O)N1CCN(c2ccc(C(F)(F)F)cn2)CC1)n1nc(C(F)(F)F)c2c(=O)[nH]ncc21 (stereo not drawn) [Compound 178] | ≤ 100 nM |
| CC(COCCC(=O)N1CCN(c2ccc(C(F)(F)F)cn2)CC1)n1nc(C(F)(F)F)c2c(=O)[nH]ncc21 (stereo not drawn) [Compound 179] | ≤ 100 nM |
| O=C(CCOCCc1cccc2c(=O)[nH]ncc12)N1CCN(c2nc3ccc(F)cc3o2)CC1 [Compound 180] | ≤ 100 nM |
| CC1(C)CN(C(=O)CCOCCn2nc(C(F)(F)F)c3c(=O)[nH]ncc32)CCN1c1ncc(C(F)(F)F)cn1 [Compound 182] | ≤ 100 nM |

Further lines, results first:

| IC50 | SMILES |
| --- | --- |
| ≤ 100 nM | O=C(COCCc1cccc2c(=O)[nH]ncc12)NC1CCN(c2ncc(C(F)(F)F)cn2)CC1 [Compound 107] |
| ≤ 100 nM | CN(C(=O)COCCc1cccc2c(=O)[nH]ncc12)C1CCN(c2ncc(C(F)(F)F)cn2)CC1 [Compound 108] |
| ≤ 100 nM | O=C(CCOCCc1cccc2c(=O)[nH]ncc12)N1CCN(c2ccc(OC(F)(F)F)cn2)CC1 [Compound 114] |
| ≤ 100 nM | CC(COCCC(=O)N1CCN(c2ncc(C(F)(F)F)cn2)CC1)c1cc(F)cc2c(=O)[nH]ncc12 (stereo not drawn) [Compound 120] |
| ≤ 100 nM | CC(OCCCC(=O)N1CCN(c2ncc(C(F)(F)F)cn2)CC1)c1cccc2c(=O)[nH]ncc12 (stereo not drawn) [Compound 123] |
| ≤ 100 nM | O=C(CCCOCc1cccc2c(=O)[nH]ncc12)N1CCN(c2ncc(C(F)(F)F)cn2)CC1 [Compound 124] |
| ≤ 100 nM | O=C(CCOCCn1c(CO)cc2c(=O)[nH]ncc21)N1CCN(c2ncc(C(F)(F)F)cn2)CC1 [Compound 125] |
| ≤ 100 nM | Cc1nn(CCOCCC(=O)N2CCN(c3ncc(C(F)(F)F)cn3)CC2)c2cn[nH]c(=O)c12 [Compound 127] |
| ≤ 100 nM | CC(OCCCC(=O)N1CCN(c2ncc(C(F)(F)F)cn2)CC1)c1cc(F)cc2c(=O)[nH]ncc12 (stereo not drawn) [Compound 129] |
| ≤ 100 nM | O=C(CCOCCn1cc(C(F)(F)F)c2c(=O)[nH]ncc21)N1CCN(c2ncc(C(F)(F)F)cn2)CC1 [Compound 131, 1-(2-(3-oxo-3-(4-(5-(trifluoromethyl)pyrimidin-2-yl)piperazin-1-yl)propoxy)ethyl)-3-(trifluoromethyl)-1,5-dihydro-4H-pyrrolo[2,3-d]pyridazin-4-one] |
| ≤ 100 nM | O=C(CCOCCn1ncc2c(=O)[nH]ncc21)N1CCN(c2ccc(C(F)(F)F)cn2)CC1 [Compound 132] |
| ≤ 100 nM | O=C(CCOCCn1ncc2c(=O)[nH]ncc21)N1CCN(c2ccc(Cl)cn2)CC1 [Compound 133] |
| ≤ 100 nM | Cc1cc(CCOCCC(=O)N2CCN(c3ncc(C(F)(F)F)cn3)CC2)n2c1C(=O)NCC2 [Compound 134] |
| ≤ 100 nM | CC1CN(C(=O)CCOCCn2ncc3c(=O)[nH]ncc32)CCN1c1ncc(C(F)(F)F)cn1 (stereo not drawn) [Compound 137] |
| ≤ 100 nM | CC1CN(C(=O)CCOCCn2ncc3c(=O)[nH]ncc32)CCN1c1ncc(C(F)(F)F)cn1 (stereo not drawn) [Compound 138] |
| ≤ 100 nM | O=C(CCOCCc1cccc2c(=O)[nH]ncc12)N1CCC(c2nc3ccccc3o2)CC1 [Compound 139] |

| IC50 | SMILES |
| --- | --- |
| ≤ 100 nM | O=C(CCOCCc1cccc2c(=O)[nH]ncc12)N1CCC(c2nc3ccccc3s2)CC1 [Compound 140] |
| ≤ 100 nM | O=C(CCOCCc1cccc2c(=O)[nH]ncc12)N1CCN(c2nc3ccccc3s2)CC1 [Compound 141] |
| ≤ 100 nM | CC1CN(c2ncc(C(F)(F)F)cn2)CCN1C(=O)CCOCCn1ncc2c(=O)[nH]ncc21 (stereo not drawn) [Compound 142] |
| ≤ 100 nM | CC1CN(c2ncc(C(F)(F)F)cn2)CCN1C(=O)CCOCCn1ncc2c(=O)[nH]ncc21 (stereo not drawn) [Compound 143] |
| ≤ 100 nM | O=C(CCOCCc1csc2c(=O)[nH]c(=O)[nH]c12)N1CCN(c2ncc(C(F)(F)F)cn2)CC1 [Compound 144] |
| ≤ 100 nM | O=C(CCOCCc1cccc2c(=O)[nH]ncc12)N1CCN(c2nc3ccccc3o2)CC1 [Compound 146] |
| ≤ 100 nM | O=C(CCOCCn1ncc2c(=O)[nH]ncc21)N1CCN(c2ncc(Cl)cn2)CC1 [Compound 147] |
| ≤ 100 nM | O=C(CCOCCc1cccc2c(=O)[nH]ncc12)N1CCN(c2ncc(C(F)(F)F)cn2)C(CO)C1 (stereo not drawn) [Compound 148] |
| ≤ 100 nM | CC(C)c1cn(CCOCCC(=O)N2CCN(c3ncc(C(F)(F)F)cn3)CC2)c2cn[nH]c(=O)c12 [Compound 150] |
| ≤ 100 nM | Cc1cn(C(C)COCCC(=O)N2CCN(c3ncc(C(F)(F)F)cn3)CC2)c2cn[nH]c(=O)c12 (stereo not drawn) [Compound 152] |
| ≤ 100 nM | O=C(CCOCCn1nc(C(F)(F)F)c2c(=O)[nH]ncc21)N1CCN(c2ncc(C(F)(F)F)cn2)CC1 [Compound 153, 1-(2-(3-oxo-3-(4-(5-(trifluoromethyl)pyrimidin-2-yl)piperazin-1-yl)propoxy)ethyl)-3-(trifluoromethyl)-1,5-dihydro-4H-pyrazolo[3,4-d]pyridazin-4-one] |
| ≤ 100 nM | CC(C)c1nn(CCOCCC(=O)N2CCN(c3ncc(C(F)(F)F)cn3)CC2)c2cn[nH]c(=O)c12 [Compound 154] |
| ≤ 100 nM | CC(COCCn1ncc2c(=O)[nH]ncc21)C(=O)N1CCN(c2ncc(C(F)(F)F)cn2)CC1 (stereo not drawn) [Compound 155] |
| ≤ 100 nM | O=C(CCOCCN1C(=O)CCc2c1cn[nH]c2=O)N1CCN(c2ncc(C(F)(F)F)cn2)CC1 [Compound 157] |
| ≤ 100 nM | O=C(CCOCCc1ccc(F)c2c(=O)[nH]ncc12)N1CCN(c2ncc(C(F)(F)F)cn2)CC1 [Compound 158] |
| ≤ 100 nM | CC1CN(c2ncc(C(F)(F)F)cn2)CCN1C(=O)CCOCCn1nc(C(F)(F)F)c2c(=O)[nH]ncc21 (stereo not drawn) [Compound 160] |
